The values below come from patent US5610320A, “Sulfonamide phenyl substituted compounds” (Eisai Co., Ltd., priority 1990, dated 1997).

In brackets after ≈: the same amount, converted by molar mass.

For orientation: IC50 means the concentration that inhibits the measured activity by half.

The subject of this assay is KB cells (human nasopharyngeal cells). Briefly: In vitro antineoplastic test on KB cells (MTT, 3 days). The assay is classed as cell-based. The following applies: 72 h, KB cells in vitro, 37° C. for three days, MTT, read-out: IC50.

Experimental: In vitro antineoplastic test on KB cells (human nasopharyngeal cells):
1.25×10^3 (0.1 ml) of KB cells suspended in a RPMI 1640 medium (a product of Nissui Seiyaku Co., Ltd.) containing 20% of bovine fetus serum, penicillin (100 units/ml), streptomycin (100 μg/ml), mercaptoethanol (5×10^-5 M) and sodium pyruvate (1 mM) were placed in each hole of a 96-hole flat-bottom microplate and cultured in an incubator containing 5% of carbon dioxide at 37° C. for one day.
This concentration was the maximum one, which was subjected to two-fold serial dilution with 0.1% bovine fetus serum RPMI 1640 culture liquid containing 0.5% of dimethyl sulfoxide. It was added to the KB cells in each hole of the above-described culture plate in an amount of 0.1 ml and cultured in an incubator containing 5% of carbon dioxide at 37° C. for three days.
After the completion of the culture, 0.05 ml of MTT [3-(4,5-dimethylthiazol-2-yl)-2,5-diphenyltetrazolium bromide] solution (3.3 mg/ml) was added to each hole and the culture was conducted for an additional 1 h. The supernatant liquid was removed from each hole by suction and a formazan thus formed was dissolved in 0.1 ml of dimethyl sulfoxide. The absorbance at 540 nm was determined with a microplate reader to use as an index of a viable count. A percentage inhibition was calculated according to the following formula and the concentration of the test compound for 50% inhibition (IC50) was determined.
Percentage inhibition (%)=(C-T)/C×100
T: absorbance of the hole containing the test compound
C: absorbance of the hole containing no test compound

Consider `COc1ccc(S(=O)(=O)Nc2cccnc2Nc2cccc(OP(=O)(O)O)c2)cc1` [Example 65, 3-[[3-(4-Methoxybenzenesulfonamido)-2-pyridyl]amino]phenyl dihydrogenphosphate], for which the IC50 is 0.2 µg/mL (≈ 0.443 µM).

As for `COc1ccc(S(=O)(=O)Nc2ccc(OC)nc2Nc2ccccc2)cc1` [Example 54, N-(2-Anilino-6-methoxy-3-pyridyl)-4-methoxybenzene sulfonamide], the concentration for half-maximal inhibition (IC50) worked out at 0.54 µg/mL (≈ 1.4 µM).

For `COc1ccc(S(=O)(=O)Nc2cccnc2Nc2ccc(OP(=O)(O)O)cc2)cc1` [Example 64, 4-[[3-(4-Methoxybenzenesulfonamido)-2-pyridyl]amino]phenyl dihydrogenphosphate], the concentration for half-maximal inhibition (IC50) was found to be 0.55 µg/mL (≈ 1.22 µM).

In the case of `COc1ccc(S(=O)(=O)Nc2cccnc2Nc2cccc(C)c2)cc1` [Example 17, 4-Methoxy-N-[2-[(3-methylphenyl)amino]-3-pyridyl]benzenesulfonamide], the IC50 stood at 0.94 µg/mL (≈ 2.54 µM).

For the molecule `COc1ccc(S(=O)(=O)Nc2ccccc2NC(C)=O)cc1` [Example 101, N-[2-(4-Methoxybenzenesulfonamido)phenyl]acetamide], the IC50 was 0.1 µg/mL (≈ 0.312 µM).

Consider `COc1ccc(S(=O)(=O)Nc2ccccc2NC(=O)c2ccccc2C)cc1` [Example 95, N-[2-(4-Methoxybenzenesulfonamido)phenyl]-2-methylbenzamide], for which the IC50 was found to be 0.045 µg/mL (≈ 0.114 µM).

With `COc1ccc(S(=O)(=O)Nc2ccccc2NC(=O)c2ccc(F)cc2Cl)cc1` [Example 94, 2-Chloro-4-fluoro-N-[2-(4-methoxybenzenesulfonamido)phenyl]benzamide], the IC50 is 0.064 µg/mL (≈ 0.147 µM).

In the case of `COc1ccc(Nc2ncccc2N(C)S(=O)(=O)c2ccc(OC)cc2)cc1` [Example 62, 4-Methoxy-N-[2-[(4-methoxyphenyl)amino]-3-pyridyl]-N-methylbenzenesulfonamide], the half-maximal inhibitory concentration (IC50) was determined as 0.53 µg/mL (≈ 1.33 µM).

On to `COc1ccc(S(=O)(=O)Nc2ccc(F)cc2NC(=O)c2ccccc2)cc1` [Example 98, N-[5-fluoro-2-(4-methoxybenzenesulfonamido)phenyl]benzamide], for which the IC50 was 0.079 µg/mL (≈ 0.197 µM).

Regarding `COc1ccc(S(=O)(=O)Nc2ccccc2NC(=O)c2ccncc2)cc1` [Example 88, N-[2-(4-Methoxybenzenesulfonamido)phenyl]isonicotinamide], the IC50 stood at 0.01 µg/mL (≈ 0.0261 µM).

Regarding `COc1ccc(S(=O)(=O)Nc2cccnc2Nc2ccccc2O)cc1` [Example 43, N-[2-[(2-Hydroxyphenyl)amino]-3-pyridyl]-4-methoxybenzenesulfonamide], the IC50 turned out to be 0.26 µg/mL (≈ 0.7 µM).

Regarding `COc1ccc(S(=O)(=O)Nc2cccnc2Nc2ccc(F)cc2)cc1` [Example 11, N-[2-[(4-Fluorophenyl)amino]-3-pyridyl]-4-methoxybenzenesulfonamide], the IC50 was found to be 0.33 µg/mL (≈ 0.884 µM).

Consider `COc1ccc(S(=O)(=O)Nc2ccccc2NC(=S)c2ccc(F)cc2)cc1` [Example 97, 4-Fluoro-N-[2-(4-methoxybenzenesulfonamido)phenyl]benzothioamide], for which the IC50 was 0.15 µg/mL (≈ 0.36 µM).

`COc1ccc(S(=O)(=O)Nc2cccnc2Nc2ccc(Cl)cc2)cc1` [Example 42, N-[2-[(4-Chlorophenyl)amino]-3-pyridyl]-4-methoxybenzenesulfonamide]: the half-maximal inhibitory concentration (IC50) is 0.59 µg/mL (≈ 1.51 µM).

As for `COc1ccc(S(=O)(=O)Nc2ccccc2Nc2ccc(O)cc2)cc1` [Example 67, N-[2-[(4-Hydroxyphenyl)amino]phenyl]-4-methoxybenzenesulfonamide], the half-inhibitory concentration (IC50) worked out at 1.4 µg/mL (≈ 3.78 µM).

For the molecule `COc1ccc(S(=O)(=O)Nc2cccnc2Nc2ccc(OC(=O)C(C)(C)C)cc2)cc1` [Example 68, 4-Methoxy-N-[2-[(4-pivaloyloxyphenyl)amino]-3-pyridyl]benzenesulfonamide], the IC50 was determined as 0.17 µg/mL (≈ 0.373 µM).

`COc1ccc(S(=O)(=O)Nc2cccnc2Nc2ccc(OC(=O)c3ccccc3)cc2)cc1` [Example 59, N-[2-[(4-Benzoyloxyphenyl)amino]-3-pyridyl]-4-methoxybenzenesulfonamide]: the half-inhibitory concentration (IC50) was 0.18 µg/mL (≈ 0.379 µM).

With `COc1ccc(S(=O)(=O)Nc2ccccc2Nc2ncccn2)cc1` [Example 57, 4-Methoxy-N-[2-[(2-pyrimidyl)amino]phenyl]benzenesulfonamide], the IC50 amounted to 0.17 µg/mL (≈ 0.477 µM).

Take `COc1ccc(S(=O)(=O)Nc2cccnc2Nc2ccccc2F)cc1` [Example 9, N-[2-[(2-Fluorophenyl)amino]-3-pyridyl]-4-methoxybenzenesulfonamide]: the concentration for half-maximal inhibition (IC50) amounted to 0.34 µg/mL (≈ 0.911 µM).

Regarding `COc1ccc(S(=O)(=O)Nc2cccnc2Nc2cccc(F)c2)cc1` [Example 10, N-[2-[(3-Fluorophenyl)amino]-3-pyridyl]-4-methoxybenzenesulfonamide], the IC50 was found to be 0.21 µg/mL (≈ 0.562 µM).

As to `COc1ccc(S(=O)(=O)Nc2cccnc2Nc2ccc(OC(=O)CN)cc2)cc1.Cl.Cl` [Example 61, N-[2-[[4-(Aminoacetyloxy)phenyl]amino]-3-pyridyl]-4-methoxybenzenesulfonamide dihydrochloride], the IC50 stood at 0.83 µg/mL.

Take `COCOc1ccc(Nc2ncccc2NS(=O)(=O)c2ccc(OC)cc2)cc1` [Example 5, 4-Methoxy-N-[2-[(4-methoxymethyloxyphenyl)amino]-3-pyridyl-]benzenesulfonamide]: the IC50 was 0.73 µg/mL (≈ 1.76 µM).

Regarding `COc1ccc(S(=O)(=O)Nc2cccnc2Nc2ccc(C)cc2)cc1` [Example 8, 4-Methoxy-N-[2-[(4-methylphenyl)amino]-3-pyridyl]benzenesulfonamide], the IC50 amounted to 0.89 µg/mL (≈ 2.41 µM).

As to `CCNC(=O)Nc1ccccc1NS(=O)(=O)c1ccc(OC)cc1` [Example 104, N-[2-[(Ethylaminocarbonyl)amino]phenyl]-4-methoxybenzenesulfonamide], the IC50 stood at 0.099 µg/mL (≈ 0.283 µM).

Take `COc1ccc(S(=O)(=O)Nc2cccnc2Nc2ccc(O)c(C)c2)cc1` [Example 36, N-[2-[(4-hydroxy-3-methylphenyl)amino]-3-pyridyl]-4-methoxybenzenesulfonamide]: the IC50 worked out at 0.72 µg/mL (≈ 1.87 µM).

Turning to `COc1ccc(S(=O)(=O)Nc2ccccc2NC(=O)c2ccco2)cc1` [Example 85, N-[2-(4-Methoxybenzenesulfonamido)phenyl]-2-furancarboxamide], the IC50 was determined as 0.01 µg/mL (≈ 0.0269 µM).

As for `COc1ccc(S(=O)(=O)Nc2ccccc2NC(=O)c2cnccc2C)cc1` [Example 71, N-[2-(4-Methoxybenzenesulfonamido)phenyl]-4-methylnicotinamide], the 50% inhibitory concentration (IC50) turned out to be 0.11 µg/mL (≈ 0.277 µM).

In the case of `CCOC(=O)c1ccc(Nc2ncccc2NS(=O)(=O)c2ccc(OC)cc2)cc1` [Example 37, Ethyl 4-[[3-(4-methoxybenzenesulfonamido)-2-pyridyl]amino]benzoate], the IC50 was 1.3 µg/mL (≈ 3.04 µM).

With `COc1ccc(S(=O)(=O)Nc2cccnc2Nc2cccc(O)c2)cc1` [Example 34, N-[2-[(3-Hydroxyphenyl)amino]-3-pyridyl]-4-methoxybenzenesulfonamide], the IC50 came to 0.11 µg/mL (≈ 0.296 µM).

Turning to `Nc1ccc(S(=O)(=O)Nc2ccccc2NC(=O)c2ccc(F)cc2)cc1` [Example 106, N-[2-(4-Aminobenzenesulfonamido)phenyl]-4-fluorobenzamide], the concentration for half-maximal inhibition (IC50) worked out at 0.3 µg/mL (≈ 0.778 µM).

In the case of `COc1ccc(S(=O)(=O)Nc2ccccc2NC(=O)c2ccc(F)cc2)cc1` [Example 82, 4-Fluoro-N-[2-(4-methoxybenzenesulfonamido)phenyl]benzamide], the IC50 was 0.026 µg/mL (≈ 0.0649 µM).

Turning to `COc1ccc(S(=O)(=O)Nc2ccccc2Nc2ccccc2)cc1` [Example 58, N-(2-Anilinophenyl)-4-methoxybenzenesulfonamide], the IC50 worked out at 1.2 µg/mL (≈ 3.39 µM).
